Source: patent publication US10806741B2, “Treatments for free-living amoebic infections” (Profounda, Inc., priority 2018, dated 2020)

Legend:
Naegleria fowleri [1] = settings: Naegleria fowleri in the laboratory; cited from earlier work
Acanthamoeba [2] = experiment: patients with Acanthamoeba keratitis treated with systemically administered (oral) miltefosine; format: in vivo, human
Text: Such infections have typically been hard to treat as the standard topical treatments generally don't permeate through the various tissue layers to the cysts of the amoeba. […] Previous treatment protocols for Acanthamoeba keratitis have only included topically applied agents such as biocides, and it is not clear from reported results whether cyst reduction was present at the end of these treatment protocols. Moreover, prior to 1996, every patient diagnosed with Acanthamoeba keratitis eventually lost the infected eye.
Since AK is commonly misdiagnosed, the stage of the disease when it is successfully identified varies greatly. […] A major advantage of the presently disclosed methods is that such patients could receive steroids after surgery while also receiving either or both of the systemic and topical formulations of miltefosine, and optional additional second agents.
Medication was discontinued for one week, during which time the patient experienced renewed symptoms.

Acanthamoeba [3] = settings: topical administration, 160 μM, 28 days treatment; hamsters exposed to Acanthamoeba for 5 days; cited from earlier work
Naegleria fowleri [4] = settings: Mexico, Arkansas, and Florida patients; cited from earlier work
[5] = in vivo; cited from earlier work
[6] = solubility of miltefosine; format: physicochemical
Text: The chemical name of miltefosine is 2-[[(hexadecyloxy)hydroxyphosphenyl]oxy]-N,N,N-trimethylethylammonium inner salt, also known as hexadecylphosphocholine, represented by the formula (I). The empirical formula is C21H46NO4P, yielding a molecular weight of 407.57 g/mol.
Thus, according to certain aspects of the presently disclosed invention, the miltefosine may be administered as an oral formulation that is a liquid, such as included in a liquid capsule that may be swallowed, or as a formulation that a patient may drink. The miltefosine may be applied directly to body tissues such as skin or cornea. Alternatively, the miltefosine may be formulated as a solution that may be administered intravenously, such as formulated in a sterile saline solution.

**Q.** What does the source list for “2-[[(hexadecyloxy)hydroxyphosphenyl]oxy]-N,N,N-trimethylethylammonium inner salt [miltefosine]”?
**A.** amoeba-killing activity (Naegleria fowleri [1]): amoeba-killing activity; efficacy against Acanthamoeba keratitis, active feeding amoeba and cysts in the eyes (Acanthamoeba [2]; oral formulation, over eighty patients, more than a third treated for at least two months): effective to treat Acanthamoeba keratitis and was able to kill both active feeding amoeba and cysts in the eyes; outcome of case study (AK infection) (Acanthamoeba [2]; patient, oral 50 mg TID just over a month, then 50 mg BID for an additional two months, with short course of oral steroids): clear the AK infection; complete cure of hamsters (Acanthamoeba [3]): 85%; survival of PAM patients (Naegleria fowleri [4]): survived; half-life [5]: long half-life; solubility ([6]; aqueous solutions): freely soluble; solubility ([6]; water, 0.1 N HCl or NaOH, methanol, and ethanol): freely soluble
